This note sets out measurements from PubChem BioAssay AID1259426 (Fisher Drug Discovery Resource Center, 2018).

As a reminder, the EC50 is the concentration that produces a half-maximal response.

Structures are written as SMILES. Values joined by “and” are separate entries in the source; they are usually repeats but may differ in a detail not shown here. Identical values can stand only once. Active and inactive are the calls of the source.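 The calls were made as follows: active = EC50 under a set limit in control cells lacking the mosquito receptor, marking a fluorescence artifact; inactive = the rest.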

For this assay, the target named is HEK293 Galpha15/GCaMP6s without NPYLR7, calcium fluorescence. The experiment in a line: nonspecific activation in parental Galpha15/GCaMP6s cells – cell-based, HEK293 lacking NPYLR7, counter-screen for mosquito NPYLR7 agonist project, dose response (AID 1259426).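 Also: potency for a rise in fluorescence over baseline.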
On to `CCOc1cc(/C=C2/Oc3cc(O)ccc3C2=O)cc(Cl)c1OCC(=O)N(C)C`, for which the EC50 was > 20 µM (inactive).

`COc1ccc(-c2cnn(CCC(N)=O)c2)c(C)c1`: the EC50 is > 20 µM (inactive).

Turning to `CNC(=O)c1cnc(/C=C/c2csc(-c3ccsc3)n2)[nH]c1=O`, the EC50 is > 20 µM (inactive).

As to `O=C1NC(c2ccc3c(c2)OCO3)C(C(=O)c2ccccc2)C(O)(C(F)(F)F)N1` (stereo not drawn), the EC50 is > 20 µM (inactive).

On to `CSc1nc(N)c2ncn([C@@H]3O[C@H](COP(=O)(O)OP(=O)(O)OP(=O)(O)O)[C@H](O)C3O)c2n1` (stereo partly drawn), for which the EC50 was 0.401 µM.

`Cc1nn(C)c(Cl)c1/C=C1/CCCc2c1nc1ccccc1c2C(=O)O`: the EC50 is > 20 µM (inactive).

As to `CCOC(=O)c1ccc(N=c2oc3cc(O)ccc3cc2-c2nc3ccccc3[nH]2)cc1`, the concentration giving a half-maximal response (EC50) is 0.204 µM.

In the case of `Cc1ccc(Nc2nc(Nc3cccc(F)c3)nc3nccnc23)c(C)c1`, the EC50 is > 20 µM (inactive).

Take `CCOCCCN1C(=O)C(=Cc2ccccc2O)NC1=S`: the EC50 was 0.0898 µM.

For `CN(Cc1ccccc1)C1=CC2=CC(=C(C#N)C#N)CCC2CC1` (stereo not drawn), the EC50 is > 20 µM (inactive).

`COc1cc(/C=C(\C#N)C(=O)c2ccc(O)c(O)c2)cc(I)c1O`: the EC50 is 6.08 µM.

On to `COc1ccc(/C=C2\Oc3c(ccc4c3CN(CC3CCCO3)CO4)C2=O)cc1OC` (stereo not drawn), for which the EC50 is 4.8 µM.

For `O=C(CC(c1cccc([N+](=O)[O-])c1)c1c[nH]c2ccccc12)NC1CC1` (stereo not drawn), the EC50 was > 20 µM (inactive).

Turning to `Cc1ccc(-c2nc3nc(N)n(C)c(=O)c3[nH]c2=O)cc1`, the EC50 is > 20 µM (inactive).

Turning to `Cc1ccc(C)c(C2C(C#N)C(=N)SC(=N)C2C#N)c1` (stereo not drawn), the EC50 was 11.9 µM.

Consider `O[C@@H]1CN(Cc2ccncc2Cl)CC[C@H]1c1ccc2c(c1)OCO2`, for which the EC50 was > 20 µM (inactive).

In the case of `COc1ccc(/C=C2\Oc3c(ccc4c3CN(Cc3ccncc3)CO4)C2=O)cc1OC`, the 50% effective concentration (EC50) was 9.55 µM.

For `CCCc1nn2c(N)c(C=C3C=C(Cl)C(=O)C(Cl)=C3)c(=O)nc2s1`, the EC50 was > 20 µM (inactive).

`CC(C)C(=O)Nc1sc2c(c1-c1nc3ccccc3s1)CCN(C(C)C)C2`: the EC50 is > 20 µM (inactive).

For the compound `COc1cccc(CN2C(=O)c3cccc(N)c3C2=O)c1`, the EC50 is > 20 µM (inactive).

On to `CCN1CCN(C2=CC3=CC(=C(C#N)C#N)CCC3CC2)CC1` (stereo not drawn), for which the EC50 was under 0.039 µM.

Turning to `CC1=CC(C)C(C(=O)O)C(C(=O)O)C1` (stereo not drawn), the EC50 is > 20 µM (inactive).

Regarding `CC(C)c1nc(NC(=O)c2[nH]ncc2Br)n(C)n1`, the 50% effective concentration (EC50) was 1.5 µM.

For `Cc1ccc2c(c1)CCCN2CC(=O)N(CCC(N)=O)c1ccccc1`, the EC50 is 16.8 µM.

Consider `CC[C@@]1(O)C(=O)OCc2c1cc1n(c2=O)Cc2cc3c(CN(C)C)c(O)ccc3nc2-1`, for which the EC50 is 0.188 µM and 1.35 µM.

Consider `CN1C(=CC=C2C(=O)Oc3ccccc3C2=O)C(C)(C)c2ccccc21`, for which the EC50 was 1.98 µM.

Take `CC(=O)Nc1sc2c(c1-c1nc3ccccc3s1)CCN(Cc1ccccc1)C2`: the EC50 was 3.18 µM.

Take `COc1ccc(NC(=O)CN2C(=O)c3ccccc3NC23CCN(C)CC3)cn1`: the EC50 was > 20 µM (inactive).

With `Nc1nc(Cl)nc2c1ncn2[C@@H]1O[C@H](COP(=O)(O)OP(=O)(O)OP(=O)(O)O)[C@H](O)C1O` (stereo partly drawn), the EC50 is > 20 µM (inactive).

On to `O=C1c2cccc3c(Nc4ccccc4)ccc(c23)C(=O)N1c1ccccc1`, for which the EC50 is 5.39 µM.

`Cc1ccc(N2C(=O)NC(=O)/C(=C\c3cccs3)C2=O)cc1`: the EC50 was > 20 µM (inactive).

As to `O=C(O)CN1C(=O)/C(=C\c2ccc(O)cc2)SC1=S`, the EC50 is 13.3 µM.

In the case of `O=C1/C(=C/c2cc3cc(Br)ccc3o2)Oc2c1ccc(O)c2CN1CCN(CCO)CC1`, the EC50 is 6.64 µM.

With `COc1ccc(OC)c(CCNc2nc3cnc(-c4cc(OC)c(OC)c(OC)c4)cc3n2C)c1`, the EC50 is > 20 µM (inactive).

In the case of `N#CC(=Cc1c(F)c(F)c(F)c(F)c1F)c1ccccn1`, the EC50 was > 20 µM (inactive).

As to `CCCC1CCC(C(=O)Nc2nnc(SCC)s2)CC1` (stereo not drawn), the EC50 is > 20 µM (inactive).

Turning to `CCN(CC)C1=CC2=CC(=C(C#N)C#N)CCC2CC1` (stereo not drawn), the EC50 was under 0.039 µM.

With `O=C(CN1C(=O)SC(=Cc2ccc(N3CCCCCC3)o2)C1=O)N1CCCCCC1`, the EC50 was > 20 µM (inactive).

As for `COc1cc(/C=C2\Oc3c(ccc4c3CN(CC3CCCO3)CO4)C2=O)cc(OC)c1OC` (stereo not drawn), the EC50 is 9.34 µM.

For `CN=c1nc(-c2ccccc2)n(-c2ccccc2)s1`, the EC50 was > 20 µM (inactive).

`O=C(NCCSc1ccc(Cl)cc1)c1ccc2c(=O)n3c(nc2c1)CCC3`: the EC50 was > 20 µM (inactive).

For the compound `O=C1OC2(c3cc(Br)c(O)cc3Oc3c2cc(Br)c(O)[c]3[Hg])c2ccccc21` (stereo not drawn), the EC50 is under 0.039 µM.

On to `COc1ccc(OC)c(CCNc2nc3cnc(-c4cccc5ccccc45)cc3n2C)c1`, for which the EC50 is > 20 µM (inactive).

With `CCOC(=O)c1cc(O)c(C(=O)OCC)s1`, the EC50 is > 20 µM (inactive).

Regarding `COc1ccc(-n2ccnc2-c2nc(-c3cccs3)oc2C)cn1`, the EC50 is > 20 µM (inactive).

For `CSc1ccc(C2CC(c3cccs3)=Nc3ncnn32)cc1` (stereo not drawn), the EC50 is 1.4 µM.

`CC1CCCCC1OCCNC(=O)C1(c2ccc(F)cc2)CCC1` (stereo not drawn): the EC50 is > 20 µM (inactive).

For the compound `COc1cc(OC)cc(C(=O)N2CCN(C(C(=O)Nc3ccc(NC(C)=O)cc3)C3CCCC3)CC2)c1` (stereo not drawn), the EC50 is > 20 µM (inactive).

As for `Clc1ccc(-c2noc3c2CN(CCn2cc(Cl)cn2)CC3)cc1`, the EC50 was 15.4 µM.

As for `COc1cc(/C=C2\SC(=S)N(C(CC(=O)O)C(=O)O)C2=O)ccc1O` (stereo not drawn), the EC50 was 9.71 µM.

With `COc1ccc(Cl)cc1Nc1nnc(-c2cc3c(ccc4ccccc43)oc2=O)s1`, the EC50 is > 20 µM (inactive).

As for `COc1cc(C=C(C#N)C(=O)OC(C)C)cc(Cl)c1O`, the EC50 is > 20 µM (inactive).

`CCOC(=O)C1=C(O)/C(=C\c2ccc(N(C)C)cc2)SC1=Nc1ccc(OC)cc1OC`: the EC50 was > 20 µM (inactive).

As to `CCN1C(=Cc2ccc3cc(C)ccc3[n+]2CC)Sc2ccccc21`, the EC50 was 0.911 µM.

`O=P1(Nc2cc(C(F)(F)F)ccc2Cl)C=C(c2ccccc2)OC(c2ccccc2)=C1`: the EC50 is > 20 µM (inactive).

`CN1CCc2c(sc(NC(=O)Cc3ccccc3)c2-c2nc3ccccc3s2)C1`: the EC50 was > 20 µM (inactive).

Consider `C[C@H]1O[C@H](O[C@@H]2[C@@H](O[C@H]3CC[C@@]4(C)C(CC[C@]5(C)C4CC=C4[C@@H]6CC(C)(C)CC[C@]6(C(=O)O)CC[C@]45C)[C@]3(C)CO)OC[C@@H](O)[C@H]2O)[C@@H](O)[C@H](O)[C@@H]1O` (stereo partly drawn), for which the 50% effective concentration (EC50) is 9.92 µM.

On to `Cn1c(C(C#N)=Cc2c(F)c(F)c(F)c(F)c2F)nc2ccccc21`, for which the EC50 was under 0.039 µM.

`Cc1cc(O)c(CN2CCN(C)CC2)c2c1C(=O)/C(=C/c1cccs1)O2`: the EC50 is 16.8 µM.

Regarding `Cc1ccc(C2=NN(C(=O)CN3CCN(C)CC3)C(c3ccccc3Cl)C2)cc1` (stereo not drawn), the EC50 is > 20 µM (inactive).

Turning to `N#CC1C(=N)Oc2cc(N)ccc2C1c1c(Cl)cccc1Cl` (stereo not drawn), the EC50 was > 20 µM (inactive).

As for `CC(=O)Nc1nc(COC(=O)c2[nH]c(C)c(C(=O)OC(C)C)c2C)cs1`, the EC50 is > 20 µM (inactive).

With `COc1ccc(/C=C2\Oc3c(ccc4c3CN(CC3CCCO3)CO4)C2=O)cc1` (stereo not drawn), the EC50 was 9.33 µM.
